Source: US20060074109A1, “Use of inhibitors of 24-hydroxylase in the treatment of cancer” (Sapphire Therapeutics, Inc., priority 2004, published 2006)

Tests used:
24-hydroxylase = target: T1, 24-hydroxylase (Homo sapiens, UniProt Q07973); conditions: Schuster et al., J. Cell. Biochem. 88:372-380 (2003); cited from earlier work
T1 sequence (Q07973 36-514): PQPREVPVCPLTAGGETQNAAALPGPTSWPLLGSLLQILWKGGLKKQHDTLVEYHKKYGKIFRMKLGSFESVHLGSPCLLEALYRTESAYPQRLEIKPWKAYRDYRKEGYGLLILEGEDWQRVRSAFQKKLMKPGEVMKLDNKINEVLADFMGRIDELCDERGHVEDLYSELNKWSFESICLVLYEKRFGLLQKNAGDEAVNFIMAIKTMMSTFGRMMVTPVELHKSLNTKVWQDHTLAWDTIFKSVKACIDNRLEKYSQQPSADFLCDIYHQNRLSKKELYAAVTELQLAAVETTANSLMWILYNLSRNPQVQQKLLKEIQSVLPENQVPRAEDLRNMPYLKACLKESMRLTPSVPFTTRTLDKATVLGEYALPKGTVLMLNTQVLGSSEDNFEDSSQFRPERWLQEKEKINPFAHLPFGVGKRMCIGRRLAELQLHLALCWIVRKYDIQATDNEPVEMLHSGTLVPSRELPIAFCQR

[1] = tested on: ovarian cancer cell lines; experiment: Cell growth assay, crystal violet, 11 days, all cell lines; format: cell-based, human; conditions: 200 nM VID 400 alone
Method: The human ovarian adenocarcinoma cell line, OVCAR-3 (ATCC, Manassas, Va.) was maintained, as recommended by the supplier, in RPMI 1640 medium (Sigma Aldrich, St. Louis, Mo.) supplemented with 10% FBS, 10 μg/ml insulin, 0.25% glucose and antibiotics (100 IU/ml penicillin, 100 μg/ml streptomycin). Human ovarian adenocarcinoma cell lines UT-OC-1, UT-OC-2, UT-OC-3, UT-OC-4, UT-OC-5 (Grenman, S., Engblom, P., Rantanen, V., Klemi, P. and Isola, J., “Cytogenetic Characterization of Five New Ovarian Carcinoma Cell Lines,” Acta Obstet. Gynecol. Scand., 76:83 (1997)) and SK-OV-3 and a human keratinocyte cell line HaCaT were grown in DMEM (Sigma Aldrich) with 10% FBS and antibiotics (100 IU/ml penicillin, 100 μg/ml streptomycin), and monkey kidney COS cells were maintained in DMEM/F12 (Sigma Aldrich) with 5% FBS. […]
Relative cell numbers were quantified as described previously (Kueng W, Silber E, Eppenberger U. Quantification of cells cultured on 96-well plates. Anal. Biochem., 182:16-9 (1989)). […] Relative cell number was given as absorbance units by measuring the optical density (590 nm) from each well using Victor 1420 multilabel counter (Wallac, Turku, Finland). […] The absorbance value of day 0 (an overnight culture of 2,000 cells/well) was set as 0 by subtracting it from each value obtained from adjacent time-point measurements (days 1-11), and based on these values growth curves were created. […]

[2] = tested on: OVCAR-3 ovarian cancer cells; experiment: Cell growth, methylene blue uptake (Experiment VI); format: cell-based, human; conditions: 200 nM VID400 with calcitriol
Method: Culture conditions were the same as for Experiment I. Cell growth was measured using uptake of methylene blue (0.5% in 50% ethanol), followed by air drying and release of the dye in 1% sodium N-lauroyl sarcosine in PBS.

For `O=C(NC[C@@H](c1ccccc1)n1ccnc1)c1ccc(-c2ccc(Cl)cc2)cc1` [VID400, 2-(R)-4′-Chlorobiphenyl-4-carboxylic acid (2-imidazol-1-yl-2-phenyl-ethyl)-amide], the “inhibition of 24-hydroxylase” value (24-hydroxylase) is given as “potent inhibitors of 24-hydroxylase”, the “effect on cell growth” value [1] is given as “varied from slight stimulation to growth inhibition” and the “effect on cell growth” value [2] is given as “produced a further inhibition which was synergistic with calcitriol”.
